Drawing on US20240287124A1, “PRODRUGS OF 4'-SUBSTITUTED NUCLEOSIDE REVERSE TRANSCRIPTASE INHIBITORS” (Merck Sharp & Dohme LLC, priority 2023, published 2024), this text covers IC50 for 19 molecules.

In the experiment the test system is HIV-1 wild-type (R8) virus. In words: Viral KINetics in Green cells (VIKING) assay, HIV-1 replication in MT4-GFP reporter cells. The format is cell-based. The following applies: Human immunodeficiency virus 1, 10% normal human serum, MT4-GFP cells, HIV-1 wild-type (R8); read-out: Viking (10% NHS), IC50. How it is done:
Antiviral potency of the compounds was determined based on their ability to block HIV-1 replication in a GFP reporter cell line; this assay is referred to as Viral KINetics in Green cells or VIKING assay. HIV-1 replication was monitored using MT4-gag-GFP clone D3 (hereafter designate MT4-GFP) cells, which are MT4 cells modified to harbor a GFP reporter gene, the expression of which is dependent on the HIV-1 proteins tat and rev. (MT4 is a human T-cell line that is particularly sensitive to HIV-1 replication.) HIV-1 infection of MT4-GFP cells results in GFP expression approximately 24 h post-infection. MT4-GFP cells were maintained at 37° C./5% CO2/90% relative humidity in RPMI 1640 supplemented with 10% fetal bovine serum, 100 U/mL penicillin/streptomycin, and […] G418 to maintain the reporter gene. For infections, MT4-GFP cells were placed in the same medium lacking G418 and infected overnight with HIV-1 wild-type (R8) virus at an approximate multiplicity of infection of 0.01 in the same incubation conditions. Cells were then washed and resuspended in RPMI 1640 containing 10% normal human serum at 2×10^5 cells/mL. Compound plates were prepared by dispensing compounds dissolved in DMSO into wells of 384-well poly D lysine-coated plates (0.2 μl/well) using an ECHO acoustic dispenser. Each compound was tested in a 10-point serial 3-fold dilution (typical final concentrations: 4 μM-0.2 nM). Controls included no inhibitor (DMSO only) and a combination of three antiviral agents as a positive control (efavirenz, indinavir, and an integrase strand transfer inhibitor at final concentrations of 4 μM each). Infected cells were added (50 μL/well) to compound plates and were maintained at 37° C./5% CO2/90% relative humidity. Infected cells were quantified at two time points, approximately 48 h and 72 h post-infection, by counting the number of green cells in each well using an Acumen eX3 scanner. The increase in the number of green cells over ˜24 h period gives the reproductive ratio, R, which is calculated by dividing the number of green cells at 72 h over those at 48 h post-infection. The percent inhibition caused by a test compound is calculated using the following formula: […]
The dose-response curves of each test compound were plotted as % inhibition versus the compound concentration. IC50 values were determined by non-linear 4-parameter fitting of the dose-response curves.
The IC50 is the midpoint of a concentration-inhibition curve. For `C#C[C@]1(COC(=O)OCc2cccn(C)c2=O)O[C@@H](n2ccc3c(N)nc(Cl)nc32)C[C@@H]1OC(=O)OCc1ccccc1` [Example 93], the IC50 stood at 7.8 nM.

For the molecule `C#C[C@]1(CO)O[C@@H](n2ccc3c(NC(=O)CCCCCCC)nc(Cl)nc32)C[C@@H]1O` [Example 66, N-(2-chloro-7-((2R,4S,5R)-5-ethynyl-4-hydroxy-5-(hydroxymethyl)tetrahydrofuran-2-yl)-7H-pyrrolo[2,3-d]pyrimidin-4-yl)octanamide], the half-maximal inhibitory concentration (IC50) was 197 nM.

As to `C#C[C@]1(CO)O[C@@H](n2ccc3c(NC(=O)OCCCCCCCCCC)nc(Cl)nc32)C[C@@H]1O` [Example 71, Decyl(2-chloro-7-((2R,4S,5R)-5-ethynyl-4-hydroxy-5-(hydroxymethyl)tetrahydrofuran-2-yl)-7H-pyrrolo[2,3-d]pyrimidin-4-yl)carbamate], the IC50 came to 785 nM.

Consider `C#C[C@]1(COC(=O)OCc2cccnc2)O[C@@H](n2ccc3c(N)nc(Cl)nc32)C[C@@H]1OC(=O)OCc1ccccc1` [Example 85], for which the IC50 amounted to 3.2 nM.

Take `C#C[C@]1(COC(=O)C23CC(C2)C3)O[C@@H](n2ccc3c(N)nc(Cl)nc32)C[C@@H]1OC(=O)OCCC12CC3CC(CC(C3)C1)C2` [Example 109]: the IC50 was 21 nM.

Regarding `C#C[C@]1(COC(=O)OCc2ccc[nH]c2=O)O[C@@H](n2ccc3c(N)nc(Cl)nc32)C[C@@H]1OC(=O)OCc1ccccc1` [Example 94], the IC50 was 6.1 nM.

Consider `C#C[C@]1(CO)O[C@@H](n2ccc3c(N)nc(Cl)nc32)C[C@@H]1OCOC(=O)OC(C)C` [Example 141], for which the 50% inhibitory concentration (IC50) stood at 3.5 nM.

On to `C#C[C@]1(COC(=O)OCC23CC(C2)C3)O[C@@H](n2ccc3c(N)nc(Cl)nc32)C[C@@H]1OC(=O)OCCC12CC3CC(CC(C3)C1)C2` [Example 175], for which the IC50 was 34 nM.

For the molecule `C#C[C@]1(CO)O[C@@H](n2ccc3c(NC(=O)CCCc4ccccc4)nc(Cl)nc32)C[C@@H]1O` [Example 198], the IC50 is 63 nM.

In the case of `C#C[C@]1(CO)O[C@@H](n2ccc3c(NC(=O)OCCCCCC)nc(Cl)nc32)C[C@@H]1O` [Example 221], the IC50 stood at 710 nM.

As for `C#C[C@]1(COC(=O)OCc2cccn(C)c2=O)O[C@@H](n2ccc3c(N)nc(Cl)nc32)C[C@@H]1OC(=O)OCc1cccn(C)c1=O` [Example 206], the IC50 came to 3.4 nM.

`C#C[C@]1(CO)O[C@@H](n2ccc3c(NC(=O)CCCCCCCCCCCCC)nc(Cl)nc32)C[C@@H]1O` [Example 70, N-(2-chloro-7-((2R,4S,5R)-5-ethynyl-4-hydroxy-5-(hydroxymethyl)tetrahydrofuran-2-yl)-7H-pyrrolo[2,3-d]pyrimidin-4-yl)tetradecanamide]: the IC50 stood at 58 nM.

Regarding `C#C[C@]1(COC(=O)[C@@H](C)c2ccccc2)O[C@@H](n2ccc3c(N)nc(Cl)nc32)C[C@@H]1OC(=O)[C@@H](C)c1ccccc1` [Example 103], the IC50 turned out to be 405 nM.

With `C#C[C@]1(COC(=O)CCCC[C@@H]2SC[C@@H]3NC(=O)N[C@@H]32)O[C@@H](n2ccc3c(N)nc(Cl)nc32)C[C@@H]1OC(=O)OCC` [Example 196], the half-maximal inhibitory concentration (IC50) turned out to be 27 nM.

Turning to `C#C[C@]1(CO)O[C@@H](n2ccc3c(N)nc(Cl)nc32)C[C@@H]1OCOC(=O)c1ccccc1` [Example 139], the IC50 came out at 3.6 nM.

As for `C#C[C@]1(COC(=O)OCCCCCCCCCC)O[C@@H](n2ccc3c(N)nc(Cl)nc32)C[C@@H]1OC(=O)OCCCCCCCCCC` [Example 92], the IC50 was found to be 3510 nM.

Turning to `C#C[C@]1(CO)O[C@@H](n2ccc3c(N)nc(Cl)nc32)C[C@@H]1OC(=O)OCc1cccnc1` [Example 166], the IC50 is 6.7 nM.

Turning to `C#C[C@]1(CO)O[C@@H](n2ccc3c(N)nc(Cl)nc32)C[C@@H]1OC(=O)OC` [Example 157], the IC50 came out at 20 nM.

Take `C#C[C@]1(COC(=O)OCCCCC[C@@H]2SC[C@@H]3NC(=O)N[C@@H]32)O[C@@H](n2ccc3c(NC(=O)CCc4ccccc4)nc(Cl)nc32)C[C@@H]1O` [Example 204]: the IC50 is 123 nM.
